The values below come from patent US7618968B2, “Aryl triazines as LPAAT-β inhibitors and uses thereof” (Cell Therapeutics, Inc., priority 2001, dated 2009).

SMILES strings stand for the structures.

This assay concerns the target T1, LPAAT-β (Homo sapiens, UniProt O15120).
T1 construct: the full-length human LPAAT-β cDNA was amplified by PCR; poly-histidine tag (from pFastBac HTc vector) (N); made in house; host or cells: Sf9 insect cells (baculovirus); membrane fraction used
T1 sequence (O15120 24-278): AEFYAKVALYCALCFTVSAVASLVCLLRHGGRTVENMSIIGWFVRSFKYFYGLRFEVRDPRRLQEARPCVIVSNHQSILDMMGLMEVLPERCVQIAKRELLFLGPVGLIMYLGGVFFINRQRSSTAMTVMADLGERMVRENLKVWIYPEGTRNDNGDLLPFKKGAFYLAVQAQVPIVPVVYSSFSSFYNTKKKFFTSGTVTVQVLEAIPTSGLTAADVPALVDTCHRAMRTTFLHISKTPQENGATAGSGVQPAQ
Kind of assay: LPAAT-β cell-free assay (colorimetric primary screen, radiometric/fluorescent TLC secondary assay). In kind it is biochemical. The following applies: Sf9 cell membrane overexpressing LPAAT-β. An excerpt: A. Production of Recombinant LPAAT-β for Assays
For the construction of Baculovirus expression vectors, the full-length human LPAAT-β cDNA was amplified by PCR from the DNA template pCE9.LPAAT-β (West et al., DNA Cell Biol. 16:691-701 (1997)) using the primers 5′-[…] […] […] […]-3′ (olpb1F; SEQ ID NO:1) and 5′-[…] […] […]-3′ (olpb1R; SEQ ID NO:2). The ˜870 bp fragment generated was reamplified by PCR using the primers 5′[…] […] […] […] ATC-3′ (olpb2F; SEQ ID NO:3) and 5′-[…] […] […]-3′ (olpb1R; SEQ ID NO:2). The ˜890 bp fragment generated was then cleaved with Sal I and Xba I for insertion into pFastBac™ HTc vector (Life Technologies, Gaithersberg, Md.) between the Sal I and Xba I sites for the generation of the plasmid pFB.LPAAT-β. This plasmid was then transformed into E. coli DH10Bac™ (Life Technologies, Gaithersberg, Md.) for the generation of recombinant Bacmid DNA for transfection in HighFive (Invitrogen, San Diego, Calif.) or SF9 insect cells for the production of recombinant Baculovirus stocks using the protocol described in the Bac-to-Bac® Baculovirus Expression System (Life Technologies, Gaithersberg, Md.), a eukaryotic expression system for generating recombinant baculovirus through site-specific transposition in E. coli. Viral stocks harvested from the transfected cells can then be used to infect fresh insect cells for the subsequence expression of LPAAT-β fusion protein with a poly-histidine tag and a myc-epitope near its N-terminus. The membrane fraction from these Sf9 cells would be the source of LPAAT enzyme.
B. Preparation of Cell Membranes from Sf9 Cells
For the preparation of membranes from Sf9 Cells, all steps are performed on ice or at 4° C. Sf9 cell pellets (˜10^8 cells) were thawed and resuspended in 1-2 ml of buffer A (20 mM Hepes, pH 7.5, 1 mM DTT, 1 mM EDTA, 20% w/v glycerol, 1 mM Benzamidine, 1 μg/ml soybean trypsin inhibitor (SBTI), 1 μg/ml pepstatin A) w/o DTT but with 1 mM Pefabloc. The cells were lysed by sonication using a Branson Sonifier at output=2, duty cycle=2, 10 pulses each at 10s. with the tip of small sonicator probe submerged but not touching the walls. DTT was then added to 1 mM from a 1 M stock. The samples were centrifuged at 1500 rpm for 5 min. The low speed supernatant was saved and centrifuged (TLA 100.3 rotor, polycarbonate tubes, 2 ml/tube or 1.5 ml/tube minimum) at 100000×g for 1 hr. The high speed pellet was resuspend in Buffer A with a probe sonicator (10 pulses @ output #2 and duty cycle 20%) as a source of LPAAT enzyme.
C. Assay of LPAAT-β Activity
LPAAT-β catalyzes the transfer of an acyl group from a donor such as acyl-CoA to LPA. The transfer of the acyl group from acyl-CoA to LPA leads to the release of free CoA, which can be reacted with the thiol reagent, 5,5′-dithiobis(2-nitrobenzoic acid) (DTNB). The reaction between DTNB and the free sulfhydryl group from CoA generates a yellow-colored product, 3-carboxylato-4-nitrothiophenolate (CNP), that absorbs at 413 nm. LPAAT-β derived from Sf9 cell membrane overexpressing LPAAT-β were resuspended in HEPES saline buffer (20 mM HEPES pH 7.5, 150 mM NaCl), 1 mg/ml BSA and 72 μl aliquots were distributed into 96-well microtiter plates. 8 μl of compound of interest at 200 μM dissolved in 100% DMSO was added into each well. 20 μl of 1 mM 18:1-CoA and 1 mM sn-1-18:1 lysoPA was then added to each well to initiate the reaction and allowed to run at room temperature for 25 min. 100 μl of 1 mM DTNB in 100% ethanol was then added to each well to quench the reaction and for color development. The absorbance at 405 nm, measured using a spectrophotometer plate reader, is proportional to the activity of LPAAT-β in the sample. This colorimetric assay was used for the high throughput screening of LPAAT inhibitors.
As to `COc1ccc(OC)c(-c2nc(N)nc(Nc3ccc(Cl)cc3)n2)c1` [Example 17, N-(4-chlorophenyl)-6-(2,5-dimethoxyphenyl)-[1,3,5]triazine-2,4-diamine], the half-inhibitory concentration (IC50) (as a rule, the concentration that gives 50% inhibition) stood at 1000 nM. Under `CNC(=O)c1cc(Nc2nc(N)nc(-c3cc(Cl)ccc3C)n2)ccc1Cl` [Example 43, 5-[4-amino-6-(5-chloro-2-methylphenyl)-[1,3,5]triazin-2-ylamino]-2-chloro-N-methylbenzamide] stands 400 nM; under `CCOc1ccc(Cl)cc1-c1nc(N)nc(Nc2ccc([N+](=O)[O-])cc2)n1` [Example 54, 6-(5-Chloro-2-ethoxyphenyl)-N-(4-nitrophenyl)-[1,3,5]triazine-2,4-diamine], 120 nM.

As for `Nc1nc(Nc2ccc(Cl)cc2)nc(-c2cc(Cl)ccc2Cl)n1` [Example 4, 6-(2,5-Dichlorophenyl)-N-(4-chlorophenyl)-[1,3,5]triazine-2,4-diamine], the 50% inhibitory concentration (IC50) was 50 nM. In the case of `Cc1ccc(Cl)cc1-c1nc(N)nc(Nc2ccc3c(c2)OCO3)n1` [Example 19, N-Benzo[1.3]dioxol-5-yl-6-(5-chloro-2-methyl-phenyl)-[1,3,5]triazine-2,4-diamine], the half-maximal inhibitory concentration (IC50) turned out to be 200 nM. Consider `CCOc1ccc(Cl)cc1-c1nc(N)nc(Nc2ccc(C)cc2)n1` [Example 61, 6-(5-Chloro-2-ethoxyphenyl)-N-p-tolyl-[1,3,5]triazine-2,4-diamine], for which 2300 nM corresponded to half-maximal inhibition (IC50). As to `COc1ccc(Cl)cc1-c1nc(N)nc(Nc2ccc([N+](=O)[O-])cc2)n1` [Example 3, 6-(5-Chloro-2-methoxyphenyl)-N-(4-nitrophenyl)-[1,3,5]triazine-2,4-diamine], the IC50 came to 22 nM.

Compound `CCCOc1ccc(Cl)cc1-c1nc(N)nc(Nc2ccc(Cl)cc2)n1` [Example 50, N-(4-Chloro-phenyl)-6-(5-chloro-2-propoxy-phenyl)-[1,3,5]triazine-2,4-diamine] came in with an IC50 of 200 nM. The same measure for `Cc1ccc(Cl)cc1-c1nc(N)nc(Nc2ccc(COC(=O)CCC(=O)O)cc2)n1` [Example 70]: 830 nM; for `CN(C)c1ccc(Cl)cc1-c1nc(N)nc(Nc2ccc(Cl)cc2)n1` [Example 47, 6-(5-Chloro-2-dimethylaminophenyl)-N-(4-chlorophenyl)-[1,3,5]triazine-2,4-diamine]: 140 nM. Under `Cc1ccc(Cl)cc1-c1nc(Cl)nc(Nc2ccc(Br)cc2)n1` [Example 20, (4-Bromo-phenyl)-[4-chloro-6-(5-chloro-2-methyl-phenyl)-[1,3,5]triazin-2-yl]-amine] stands 10 nM. On to `Nc1nc(Nc2ccc(Cl)cc2)nc(-c2cc(Cl)ccc2Br)n1` [Example 80, 6-(2-Bromo-5-chloro-phenyl)-N-(4-chloro-phenyl)-[1,3,5]triazine-2,4-diamine], for which the 50% inhibitory concentration (IC50) came out at 140 nM. The compound `COc1ccc(Cl)cc1-c1nc(N)nc(Nc2ccc(C)cc2)n1` [Example 79, 6-(5-Chloro-2-methoxy-phenyl)-N-p-tolyl-[1,3,5]triazine-2,4-diamine] returned an IC50 of 230 nM. `COc1ccc(Cl)cc1-c1nc(N)nc(Nc2ccccc2)n1` [Example 2, 6-(5-Chloro-2-methoxyphenyl)-N-phenyl-[1,3,5]triazine-2,4-diamine] came in with an IC50 of 2300 nM. On to `Cc1ccc(Cl)cc1-c1nc(N)nc(Nc2ccc(Br)cc2)n1` [Example 11, N-2-(4-Bromophenyl)-6-(5-chloro-2-methylphenyl)-[1,3,5]triazine-2,4-diamine], for which the 50% inhibitory concentration (IC50) was determined as 60 nM.

On to `C#Cc1ccc(Nc2nc(N)nc(-c3cc(Cl)ccc3C)n2)cc1` [Example 42, 6-(5-Chloro-2-methyl-phenyl)-N-(4-ethynyl-phenyl)-[1,3,5]triazine-2,4-diamine], for which the IC50 is 280 nM. The same measure for `COCc1ccc(Nc2nc(N)nc(-c3cc(Cl)ccc3C)n2)cc1` [Example 78, 6-(5-Chloro-2-methyl-phenyl)-N-(4-methoxy-methyl-phenyl)-[1,3,5]triazine-2,4-diamine]: 640 nM; for `Cc1ccc(Cl)cc1-c1nc(N)nc(Nc2ccc(COC(=O)C[C@H](N)C(=O)O)cc2)n1` [Example 73, (S)-2-Amino-succinic acid 4-{4-[4-amino-6-(5-chloro-2-methyl-phenyl)-[1,3,5]triazin-2-ylamino]-benzyl}ester]: 2100 nM. The same measure for `Cc1ccc(Cl)cc1-c1nc(N)nc(Nc2ccc(CCO)cc2)n1` [Example 57, 2-{4-[4-Amino-6-(5-chloro-2-methyl-phenyl)-[1,3,5]triazin-2-ylamino]-phenyl}-ethanol]: 140 nM.

In turn, `Cc1ccc(Cl)cc1-c1nc(Cl)nc(Nc2ccc(N=[N+]=[N-])cc2)n1` [Example 35, [6-(5-Chloro-2-methyl-phenyl)-2-chloro-3-yl-[1,3,5]-triazin-4-yl]-(4-azido-phenyl)-amine] registered an IC50 of 130 nM. The same measure for `Cc1ccc(Cl)cc1-c1nc(N)nc(Nc2ccc(COC(=O)CN)cc2)n1` [Example 71, Amino-acetic acid 4-[4-amino-6-(5-chloro-2-methyl-phenyl)-[1,3,5]triazin-2ylamino]-benzyl ester]: 480 nM. Take `Nc1nc(Nc2ccc(Cl)cc2)nc(-c2cc(Br)ccc2Cl)n1` [Example 45, 6-(5-Bromo-2-chloro-phenyl)-N-(4-chloro-phenyl)-[1,3,5]triazine-2,4-diamine]: 40 nM corresponded to half-maximal inhibition (IC50). For `Cc1ccc(Cl)cc1-c1nc(N)nc(Nc2ccc(CCl)cc2)n1` [Example 88, N-(4-Chloromethyl-phenyl)-6-(5-chloro-2-methyl-phenyl)-[1,3,5]triazine-2,4-diamine], inhibition was half-maximal at 180 nM (IC50). The compound `CNc1cc(Nc2nc(N)nc(-c3cc(Cl)ccc3C)n2)ccc1Cl` [Example 34, N-(4-Chloro-3-methylamino-phenyl)-6-(5-chloro-2-methyl-phenyl)-[1,3,5]triazine-2,4-diamine] registered an IC50 of 160 nM. Under `Cc1ccc(Cl)cc1-c1nc(N)nc(Nc2ccc3cn[nH]c3c2)n1` [Example 13, 6-(5-Chloro-2-Methyl-Phenyl)-N-(1H-Indazol-6-yl)-[1,3,5]Triazine-2,4-Diamine] stands 55 nM; under `Cc1ccc(Cl)cc1-c1nc(N)nc(Nc2ccc(CC(=O)O)cc2)n1` [Example 60, {4-[4-Amino-6-(5-chloro-2-methyl-phenyl)-[1,3,5]triazin-2-ylamino]-phenyl}-acetic acid], 1300 nM; under `CNc1ccc(Cl)cc1-c1nc(N)nc(Nc2ccc(Cl)cc2)n1` [Example 44, 6-(5-Chloro-2-methylaminophenyl)-N-(4-chlorophenyl)-[1,3,5]triazine-2,4-diamine], 1500 nM.

As to `Nc1nc(Nc2ccc(CO)cc2)nc(-c2cc(Cl)ccc2Cl)n1` [Example 46, {4-[4-Amino-6-(2,5-dichloro-phenyl)-[1,3,5]triazin-2-ylamino]-phenyl}-methanol], the IC50 is 440 nM.
